Laboratory results published in paper PMC6979384, “Characterization of the plant homeodomain (PHD) reader family for their histone tail interactions” (Epigenetics & Chromatin, 2020).

Key:
Assay in all cases: Histone peptide microarray
Assay type in all cases: binding, human
ING4 = settings: GST-tagged ING4; sheet Array Heatmap; each array performed twice, total n = 4
Outline: (§1)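 GST-PHD reader, 0.5 μM, probed on 293-peptide histone array (single/combinatorial PTMs); optimized array protocol; signal = mean ± SD, n = 4.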

SP140L = settings: GST-tagged SP140L; sheet Array Heatmap; each array performed twice, total n = 4
Outline: as §1

TRIM66 (PB) = settings: GST-tagged TRIM66 (PB = PHD + Bromodomain); sheet Array Heatmap; each array performed twice, total n = 4
Outline: as §1

BAZ2B = settings: GST-tagged BAZ2B; sheet Array Heatmap; each array performed twice, total n = 4
Outline: as §1

CHD4 (PPCC) = settings: GST-tagged CHD4 (PPCC = Dual PHD + Dual Chromodomain); sheet Array Heatmap; each array performed twice, total n = 4
Outline: as §1

KDM5B (3) = settings: GST-tagged KDM5B (3); sheet Array Heatmap; each array performed twice, total n = 4
Outline: as §1

KDM4C (TTP) = settings: GST-tagged KDM4C (TTP = Tandem Tudor domain + PHD); sheet Array Heatmap; each array performed twice, total n = 4
Outline: as §1

PHF23 = settings: GST-tagged PHF23; sheet Array Heatmap; each array performed twice, total n = 4
Outline: as §1

ING5 = settings: GST-tagged ING5; sheet Array Heatmap; each array performed twice, total n = 4
Outline: as §1

KDM7A = settings: GST-tagged KDM7A; sheet Array Heatmap; each array performed twice, total n = 4
Outline: as §1

CHD5 (PPCC) = settings: GST-tagged CHD5 (PPCC = Dual PHD + Dual Chromodomain); sheet Array Heatmap; each array performed twice, total n = 4
Outline: as §1

ING2 = settings: GST-tagged ING2; sheet Array Heatmap; each array performed twice, total n = 4
Outline: as §1

KDM5A (3) = settings: GST-tagged KDM5A (3); sheet Array Heatmap; each array performed twice, total n = 4
Outline: as §1

KDM5B (1) = settings: GST-tagged KDM5B (1); sheet Array Heatmap; each array performed twice, total n = 4
Outline: as §1

PHF8 = settings: GST-tagged PHF8; sheet Array Heatmap; each array performed twice, total n = 4
Outline: as §1

PHRF1 (RP) = settings: GST-tagged PHRF1 (RP); sheet Array Heatmap; each array performed twice, total n = 4
Outline: as §1

CHD5 (PCC) = settings: GST-tagged CHD5 (PCC = PHD + Dual Chromodomain); sheet Array Heatmap; each array performed twice, total n = 4
Outline: as §1

BPTF (PB) = settings: GST-tagged BPTF (PB = PHD + Bromodomain); sheet Array Heatmap; each array performed twice, total n = 4
Outline: as §1

PHF2 = settings: GST-tagged PHF2; sheet Array Heatmap; each array performed twice, total n = 4
Outline: as §1

PHF21A = settings: GST-tagged PHF21A; sheet Array Heatmap; each array performed twice, total n = 4
Outline: as §1

AIRE (PP) = settings: GST-tagged AIRE (PP); sheet Array Heatmap; each array performed twice, total n = 4
Outline: as §1

MORC3 (CW) = settings: GST-tagged MORC3 (CW = CW-type Zn-finger); sheet Array Heatmap; each array performed twice, total n = 4
Outline: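 Readout is array binding signal, reported as the mean and standard deviation over four replicates. Each purified GST-fused PHD domain was incubated at 0.5 μM with a library of 293 modified histone peptides.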

KDM5A (1) = settings: GST-tagged KDM5A (1); sheet Array Heatmap; each array performed twice, total n = 4
Outline: as §1

DPF2 (PPC2W2) = settings: GST-tagged DPF2 (PPC2W2 = Dual PHD + C2W2-type Zn-finger); sheet Array Heatmap; each array performed twice, total n = 4
Outline: as §1

ING3 = settings: GST-tagged ING3; sheet Array Heatmap; each array performed twice, total n = 4
Outline: as §1

DIDO1 = settings: GST-tagged DIDO1; sheet Array Heatmap; each array performed twice, total n = 4
Outline: as §1

TAF3 = settings: GST-tagged TAF3; sheet Array Heatmap; each array performed twice, total n = 4
Outline: as §1

MLL5 = settings: GST-tagged MLL5; sheet Array Heatmap; each array performed twice, total n = 4
Outline: as §1

ING1 = settings: GST-tagged ING1; sheet Array Heatmap; each array performed twice, total n = 4
Outline: as §1

RAG2 = settings: GST-tagged RAG2; sheet Array Heatmap; each array performed twice, total n = 4
Outline: as §1

PHF13 = settings: GST-tagged PHF13; sheet Array Heatmap; each array performed twice, total n = 4
Outline: as §1

Substance | Array Heatmap signal (histone peptide microarray) (ING4) | Array Heatmap signal (histone peptide microarray) (SP140L) | Array Heatmap signal (histone peptide microarray) (TRIM66 (PB)) | Array Heatmap signal (histone peptide microarray) (BAZ2B) | Array Heatmap signal (histone peptide microarray) (CHD4 (PPCC)) | Array Heatmap signal (histone peptide microarray) (KDM5B (3)) | Array Heatmap signal (histone peptide microarray) (KDM4C (TTP)) | Array Heatmap signal (histone peptide microarray) (PHF23) | Array Heatmap signal (histone peptide microarray) (ING5) | Array Heatmap signal (histone peptide microarray) (KDM7A) | Array Heatmap signal (histone peptide microarray) (CHD5 (PPCC)) | Array Heatmap signal (histone peptide microarray) (ING2) | Array Heatmap signal (histone peptide microarray) (KDM5A (3)) | Array Heatmap signal (histone peptide microarray) (KDM5B (1)) | Array Heatmap signal (histone peptide microarray) (PHF8) | Array Heatmap signal (histone peptide microarray) (PHRF1 (RP)) | Array Heatmap signal (histone peptide microarray) (CHD5 (PCC)) | Array Heatmap signal (histone peptide microarray) (BPTF (PB)) | Array Heatmap signal (histone peptide microarray) (PHF2) | Array Heatmap signal (histone peptide microarray) (PHF21A) | also measured
H3R2me2a + T3p + K4me3 + K9ac + K14ac + K18ac: H3 1-20 | 0.4544 | 0.3444 | 0.5775 | 0.4718 | 0.601 | 0.4463 | 0.4624 | 0.5518 | 0.3446 | 0.3252 | 0.5374 | 0.6041 | 0.4737 | 0.6524 | 0.377 | 0.4697 | 0.7369 | 0.3469 | 0.6236 | 0.4332 | Array Heatmap signal (histone peptide microarray) (AIRE (PP)): 0.414; Array Heatmap signal (histone peptide microarray) (MORC3 (CW)): 0.4346; Array Heatmap signal (histone peptide microarray) (KDM5A (1)): 0.4561; Array Heatmap signal (histone peptide microarray) (DPF2 (PPC2W2)): 0.7018; Array Heatmap signal (histone peptide microarray) (ING3): 0.4704; Array Heatmap signal (histone peptide microarray) (DIDO1): 0.7634; Array Heatmap signal (histone peptide microarray) (TAF3): 0.2554; Array Heatmap signal (histone peptide microarray) (MLL5): 0.5392; Array Heatmap signal (histone peptide microarray) (ING1): 0.5919; Array Heatmap signal (histone peptide microarray) (RAG2): 0.2569; Array Heatmap signal (histone peptide microarray) (PHF13): 0.5933
H3R2me2a + T3p + K4me3: H3 1-20 | 0.4572 | 0.3541 | 0.6445 | 0.443 | 0.6044 | 0.5351 | 0.4695 | 0.5238 | 0.3525 | 0.3305 | 0.5403 | 0.5913 | 0.5129 | 0.6049 | 0.3942 | 0.4955 | 0.7634 | 0.3598 | 0.6351 | 0.4298 | Array Heatmap signal (histone peptide microarray) (AIRE (PP)): 0.4234; Array Heatmap signal (histone peptide microarray) (MORC3 (CW)): 0.479; Array Heatmap signal (histone peptide microarray) (KDM5A (1)): 0.4435; Array Heatmap signal (histone peptide microarray) (DPF2 (PPC2W2)): 0.687; Array Heatmap signal (histone peptide microarray) (ING3): 0.4974; Array Heatmap signal (histone peptide microarray) (DIDO1): 0.7496; Array Heatmap signal (histone peptide microarray) (TAF3): 0.272; Array Heatmap signal (histone peptide microarray) (MLL5): 0.5468; Array Heatmap signal (histone peptide microarray) (ING1): 0.5674; Array Heatmap signal (histone peptide microarray) (RAG2): 0.2527; Array Heatmap signal (histone peptide microarray) (PHF13): 0.6175
H3R2me2a: H3 1-20 [Peptide H3R2me2a] | 0.442 | 0.3569 | 0.568 | 0.4186 | 0.6459 | 0.4682 | 0.4374 | 0.5039 | 0.3271 | 0.3073 | 0.5177 | 0.6004 | 0.4981 | 0.5237 | 0.3491 | 0.516 | 0.7924 | 0.3326 | 0.5486 | 0.4684 | Array Heatmap signal (histone peptide microarray) (AIRE (PP)): 0.3953; Array Heatmap signal (histone peptide microarray) (MORC3 (CW)): 0.4345; Array Heatmap signal (histone peptide microarray) (KDM5A (1)): 0.4227; Array Heatmap signal (histone peptide microarray) (DPF2 (PPC2W2)): 0.6507; Array Heatmap signal (histone peptide microarray) (ING3): 0.4743; Array Heatmap signal (histone peptide microarray) (DIDO1): 0.6992; Array Heatmap signal (histone peptide microarray) (TAF3): 0.2736; Array Heatmap signal (histone peptide microarray) (MLL5): 0.5223; Array Heatmap signal (histone peptide microarray) (ING1): 0.5498; Array Heatmap signal (histone peptide microarray) (RAG2): 0.2465; Array Heatmap signal (histone peptide microarray) (PHF13): 0.5929
